How the values were obtained:
[1] = system: corn rust (Puccinia sorghi); assay: Greenhouse pot test, corn rust; format: in vivo; conditions: Puccinia sorghi, 168 h, read-out: Control effect (%) Corn rust
Procedure: (§1) Test method: each of the test compounds in Table 1 was dispensed to 5 wt % emulsifiable concentrate (hereinafter referred to as 5% EC). The greenhouse pot test was used in each experiment, and the effective concentrations of each compound were illustrated in Table 1.
Corn rust: two-three leaf stage potted corn seedling with uniform growth was selected and made foliar spray treatment with 5% EC, the blank control sprayed with clean water was additionally arranged, three replicates were carried out. After 24 h, the leaves of the host plants were inoculated with sporangial suspensions of the fungi corn rust (Puccinia sorghi), the plants were stored in humidity chamber (temperature: lighting 25° C., dark 20° C., relative humidity 95-100%) and then transferred to greenhouse (25±1° C.) 24 h after infection. After 7 days, the screening results were investigated according to the disease incidence condition of blank control.
(§2) The investigation method: “Guidelines for the field efficacy trials of pesticides” was adopted as the grading standard, and the control effect in a unit of % was calculated based on the disease index. Disease index=Σ(number of diseased leaves at each grade×relative grade value)×100/(total number of leaves×9); Control effect (%)=(disease index of control−disease index of treated)×100/disease index of control;
(§3) The compounds provided by the present disclosure and some control compounds were tested by the same methods in the Test example 1, except that the effective concentrations of the compounds in this Test example are shown in Table 2.

wheat powdery mildew = assay: Field trial, wheat powdery mildew; format: in vivo, Erysiphe graminis; conditions: sprayed once
Procedure: II. The Wheat Powdery Mildew Test Method:
(§4) Spray method: Stein and leaf spraying (Applicator: Xinkangda lithium battery electric sprayer).
Test crops: wheat (cultivars: Liaochun 10)
(§5) The test was carried out in Shenyang, the test field was loam with rich organic matters and normal management of fertilizer and water, and no other pesticide was applied during the test.
(§6) The arrangement of the test plot was random block permutation; the area of the test plot: 15 m^2; repeat times: 3 times; spray time and frequency: Sep. 17, 2018, once. Spray dosage: each treatment was repeated 3 times, the total water consumption was 8 L. No other pesticide was applied during the test.
The incidence of disease spots in each plot was investigated by diagonal selecting 4 samples/plot and 20 plants/samples, and the first leaf below the flag leaf of each plant was investigated.
(§7) The grading standard of crop disease was as follows:
(§8) Grade 0: no leaf-spot area;
(§9) Grade 1: the ratio of leaf-spot area to leaf area is less than 5%;
(§10) Grade 3: the ratio of leaf-spot area to leaf area is between 6-25%;
(§11) Grade 5: the ratio of leaf-spot area to leaf area is between 26-50%;
(§12) Grade 7: the ratio of leaf-spot area to leaf area is between 51-75%;
(§13) Grade 9: the ratio of leaf-spot area to leaf area is between 76-100%;
(§14) According to the relevant content of the “Guidelines for the field efficacy trials of pesticides of the People's Republic of China (PRC)”, the disease index was calculated according to the grading standard, and the control effect in a unit of % was calculated based on the disease index, and the test data of significance analysis was performed by using DPS evaluation system (DMRT).

cucumber powdery mildew = assay: Greenhouse pot test, cucumber powdery mildew; format: in vivo; conditions: Cucumis sativus, 192 h, greenhouse pot, read-out: Control effect (%) Cucumber powdery mildew
Procedure: as §1
Cucumber powdery mildew: cucumber seedling in a true leaf period with uniform growth was selected, and dried in the shade for 24 h after spray treatment. Fresh cucumber powdery mildew spores on the cucumber leaves were collected and washed, and filtered through a double gauze to prepare a spores suspension with concentration of about 100,000/mL, then spray inoculation was applied. The test materials inoculated were moved into a greenhouse (lighting 21-23° C.), after 8 days, the grading investigation was carried out according to the disease incidence condition of blank control, and the control effect in a unit of % was calculated according to disease index.
as §2, §3

soybean rust = assay: Field trial, soybean rust; format: in vivo, Phakopsora pacchyrhizi Sydow; conditions: sprayed 2 times
Procedure: III. The Soybean Rust Test Method:
as §4
Test crops: soybean (cultivars: Glycine max(L) Merr)
as §5
as §6, with “25” for “15”, “2 times on Aug. 11, 2018 and Aug. 21, 2018 respectively.” for “Sep. 17, 2018, once.”, “test. […] 15-20 days after the second spray treatment, the control effect was investigated.” for “test.”
The incidence of disease spots in each plot was investigated by diagonal selecting 5 samples/plot and 20 plants/samples, 10 leaves/plant was surveyed.
as §7, §8, §9, §10, §11, §12, §13, §14

[2] = system: wheat powdery mildew (Erysiphe graminis); assay: Greenhouse pot test, wheat powdery mildew; format: in vivo; conditions: Blumeria graminis, 168 h, read-out: Control effect (%) Wheat powdery mildew
Text: as §1
Wheat powdery mildew: two-leaf stage potted wheat seedling with uniform growth was selected and made foliar spray treatment with 5% EC, the blank control sprayed with clean water was additionally arranged, three replicates were carried out. After 24 h, the leaves of the host plants were inoculated by shake-down method with sporangial suspensions of the fungi wheat powdery mildew (Erysiphe graminis), the plants were stored in a greenhouse (25±1° C.). After 7 days, the screening results were investigated according to the disease incidence condition of blank control.
as §2, §3

[3] = system: rice sheath blight fungi (Rhizoctonia solami); assay: Greenhouse pot test, rice sheath blight; format: in vivo
Procedure: as §3
In addition, the test method for rice sheath blight as following steps:
The potted rice seedling with uniform growth was selected, and dried in the shade for 24 h after spray treatment, then inoculated 3 blocks of 0.25 cm^2 rice sheath blight fungi (Rhizoctonia solami) at the base of seedling by clamp inoculation bacterium block method. The test materials inoculated were moved into greenhouse (temperature: lighting 28° C., dark 25° C., relative humidity 95%), after 7 days, investigate 5 leaves of per block treatment, the grading investigation was carried out according to the disease incidence condition of sheaths and leaves of rice, “Guidelines for the field efficacy trials of pesticides” was adopted as the grading standard, the disease index was calculated according to the grading standard, and the control effect in a unit of % was calculated according to disease index.

Question: Which results are given for `Cn1cc(C(=O)Nc2ccccc2Oc2ccc(C(F)(F)F)cc2C(F)(F)F)c(C(F)F)n1` [Compound 1]?
Answer: pest or weed control at 1.5625 µg/mL ([1]; 1.5625 mg/L): 100%; pest or weed control at 2.5 µg/mL ([1]; 2.5 mg/L): 100%; pest or weed control at 3.125 µg/mL ([1]; 3.1250 mg/L): 100%; pest or weed control at 6.25 µg/mL ([1]; 6.25 mg/L): 100%; pest or weed control at 10 µg/mL ([1]; 10 mg/L): 100%; pest or weed control at 25 µg/mL ([1]; 25 mg/L): 100%; pest or weed control at 100 µg/mL ([1]; 100 mg/L): 100%; Control effect (%) Wheat powdery mildew (wheat powdery mildew; 100 mg/L): 98%; Control effect (%) Wheat powdery mildew (wheat powdery mildew; 200 mg/L): 100%; pest or weed control at 1 µg/mL (cucumber powdery mildew; 1 mg/L): 90%; pest or weed control at 1.5625 µg/mL (cucumber powdery mildew; 1.5625 mg/L): 95%; pest or weed control at 2.5 µg/mL (cucumber powdery mildew; 2.5 mg/L): 98%; pest or weed control at 3.125 µg/mL (cucumber powdery mildew; 3.1250 mg/L): 100%; pest or weed control at 6.25 µg/mL (cucumber powdery mildew; 6.25 mg/L): 100%; pest or weed control at 10 µg/mL (cucumber powdery mildew; 10 mg/L): 100%; pest or weed control at 25 µg/mL (cucumber powdery mildew; 25 mg/L): 100%; pest or weed control at 100 µg/mL (cucumber powdery mildew; 100 mg/L): 100%; Control effect (%) (soybean rust; dosage 50 mg/L): 92.67%; Control effect (%) (soybean rust; dosage 75 mg/L): 94.56%; Control effect (%) (soybean rust; dosage 100 mg/L): 97.69%; pest or weed control at 1.5625 µg/mL ([2]; 1.5625 mg/L): 85%; pest or weed control at 2.5 µg/mL ([2]; 2.5 mg/L): 100%; pest or weed control at 3.125 µg/mL ([2]; 3.1250 mg/L): 100%; pest or weed control at 6.25 µg/mL ([2]; 6.25 mg/L): 100%; pest or weed control at 10 µg/mL ([2]; 10 mg/L): 100%; pest or weed control at 25 µg/mL ([2]; 25 mg/L): 100%; pest or weed control at 100 µg/mL ([2]; 100 mg/L): 100%; Control effect (%) Rice sheath blight ([3]; 0.625 mg/L): 75%; Control effect (%) Rice sheath blight ([3]; 1 mg/L): 80%; Control effect (%) Rice sheath blight ([3]; 1.5625 mg/L): 85%; Control effect (%) Rice sheath blight ([3]; 2.5 mg/L): 90%; Control effect (%) Rice sheath blight ([3]; 3.1250 mg/L): 100%; Control effect (%) Rice sheath blight ([3]; 10 mg/L): 100%

— US11548855B2, “Pyrazole amide compound and application thereof, and fungicide” (Shandong United Pesticide Industry Co. Ltd., priority 2017, dated 2023)
